Measured values from patent US6686385B2, “Anhydro sugar derivatives of indolocarbazoles” (Bristol-Myers Squibb Company, priority 2000, dated 2004).

Experiments:
human topoisomerase I = target: T1, human topoisomerase I (Homo sapiens, UniProt P11387); test: Topoisomerase I activity (in vitro): compound-induced, topoisomerase I-mediated single strand breaks in PM2 DNA; assay type: biochemical; details: purified human topoisomerase I (Topogen), 30 minutes at 37° C., median effective concentration for inducing single strand breaks, read-out: TOPO I EC50
T1 construct: purchased Topogen
T1 sequence (P11387 1-765): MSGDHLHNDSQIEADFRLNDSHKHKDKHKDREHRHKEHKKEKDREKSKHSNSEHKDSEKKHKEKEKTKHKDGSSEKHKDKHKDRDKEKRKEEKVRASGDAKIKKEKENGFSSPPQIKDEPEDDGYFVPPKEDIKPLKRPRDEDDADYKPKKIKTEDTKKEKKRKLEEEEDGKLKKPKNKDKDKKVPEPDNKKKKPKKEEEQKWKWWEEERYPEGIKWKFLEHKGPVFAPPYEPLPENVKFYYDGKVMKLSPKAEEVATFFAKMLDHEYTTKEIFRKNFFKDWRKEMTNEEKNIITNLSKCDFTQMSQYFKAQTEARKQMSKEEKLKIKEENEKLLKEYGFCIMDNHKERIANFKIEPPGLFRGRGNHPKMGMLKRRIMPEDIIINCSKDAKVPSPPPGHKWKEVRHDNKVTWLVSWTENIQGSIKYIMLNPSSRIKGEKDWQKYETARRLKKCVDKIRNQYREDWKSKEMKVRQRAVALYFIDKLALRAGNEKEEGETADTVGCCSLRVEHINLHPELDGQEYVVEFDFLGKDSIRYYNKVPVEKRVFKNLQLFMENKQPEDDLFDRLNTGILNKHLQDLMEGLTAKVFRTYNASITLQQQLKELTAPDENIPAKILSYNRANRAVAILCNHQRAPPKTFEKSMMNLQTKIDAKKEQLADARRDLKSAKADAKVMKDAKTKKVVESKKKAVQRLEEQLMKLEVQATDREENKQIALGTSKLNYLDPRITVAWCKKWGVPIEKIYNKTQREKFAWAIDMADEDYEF
Protocol: Topoisomerase I activity was measured as described below: The procedure for assaying compound-induced, topoisomerase I-mediated single strand breaks in DNA was essentially that described by Hsiang, et al., (J. Biol. Chem. 1985, 260,14873-14878). Samples dissolved in 100% DMSO as either […] or 10 mg/ml solutions, unless otherwise stated, were diluted in Tris-EDTA buffer. Marine bacteriophage PM2 DNA (Boehringer Mannheim) was also diluted in Tris-EDTA buffer to a concentration of 0.02 μg/μl. Different dilutions of compound being evaluated were mixed with diluted DNA and this mixture was added to 1000 unit (one unit of enzyme activity is defined as the amount capable of relaxing 100 ng of supercoiled DNA in approximately 30 minutes at 37° C.) aliquots of purified human topoisomerase I (Topogen) in 2×reaction buffer to start the reaction. The compound—DNA—enzyme mixture was incubated for 30 minutes at 37° C. before stopping the reaction with warm stop buffer containing sodium dodecyl sulfate and proteinase K (Sigma). These mixtures were allowed to incubate at 37° C. for another 10 minutes, at which time the mixtures were removed from the waterbath and extracted with a 24:1 mixture of chloroform/isoamyl alcohol. Following centrifugation, aliquots of the aqueous phases were placed in wells of a 0.9% agarose (SeaKem) gel in Tris-borate buffer containing 0.5 μg/ml of ethidium bromide and subjected to electrophbresis for 15 hours to separate the different topological isomers and nicked and broken DNAs. After destaining the gel in water, the ethidium bromide stained DNA reaction products were visualized by exposing the gel to UV irradiation. Negatives of photographs of the irradiated gels were scanned with a densitometer and areas under the peaks were calculated in order to obtain percent-single strand DNA break formation for each sample. A median effective concentration(EC50) was obtained for each compound by interpolation between points of the resulting dose-effect curve which defines the potency of the compound for its effect in inducing topoisomerase I-mediated single strand breaks in DNA.

murine P388 cell line = test: In vitro cell-based cytotoxicity / proliferation inhibition (XTT assay); details: Mus musculus, 72 hrs incubation, absorbance at 450 nm
Protocol: The proliferation inhibition activity against murine P388 cell line was measured as follow. […] The cells were incubated at 37° C. for 72 hrs at which time the tetrazolium dye, XTT, containing phenazine methosulfate was added. A dehydrogenase enzyme in live cells reduoes the XTT to a form that absorbs light at 450 nm which can be quantitated spectrophotometrically. The greater the absorbance the greater the number of live cells. The results are expressed as an IC50 which is the drug concentration required to inhibit cell proliferation (i.e. absorbance at 450 nm) to 50% of that of untreated control cells.

SMILES	EC50 (human topoisomerase I)	IC50 (murine P388 cell line)	melting point
O=C1c2c(c3c4cc(F)ccc4n([C@@H]4OC5COC([C@@H]5O)[C@H]4O)c3c3[nH]c4ccc(F)cc4c23)C(=O)N1O (stereo partly drawn) [Example 3, 3,9-Difluoro-12,13-dihydro-13-[(3,6-anhydro)-β-D-glucopyranosyl]-5H-indolo[2,3-a]pyrrolo[3,4-c]carbazole-5,7(6-N-hydroxyl)-dione]	14 nM	14.6 nM	–
O=C1NC(=O)c2c1c1c3cc(F)ccc3[nH]c1c1c2c2cc(F)ccc2n1[C@H]1OC2COC([C@@H]2O)[C@H]1O (stereo partly drawn) [Example 2, 3,9-Difluoro-12,13-dihydro-13-[(3,6-anhydro)-α-D-glucopyranosyl]-5H-indolo[2,3-a]pyrrolo[3,4-c]carbazole-5,7(6H)-dione]	360 nM	38.8 nM	–
O=C1c2c(c3c4cc(F)ccc4n(C4O[C@H]5[C@H](OC[C@H]5O)[C@H]4O)c3c3[nH]c4ccc(F)cc4c23)C(=O)N1O (stereo partly drawn) [Example 6, 3,9-Difluoro-12,13-dihydro-13-[(2,6-dihydroxy)-(4,8-dioxa)-bicyclo[3.3.0]oct-3-yl]-5H-indolo[2,3-a]pyrrolo[3,4-c]carbazole-5,7(6-N-hydroxyl)-dione]	10 nM	14.1 nM	–
O=C1NC(=O)c2c1c1c3cc(F)c(F)cc3[nH]c1c1c2c2cc(F)c(F)cc2n1[C@@H]1O[C@@H]2CO[C@H]([C@H]1O)C2(F)F [Example 17, 2,3,9,10-Tetrafluoro-12-(3,6-anhydro-4-deoxy-4,4-difluoro-β-D-glucopyranosyl)-6,7,12,13-tetrahydro(5H)indolo[2,3-a]pyrrolo[3,4-c]carbazole-5,7-dione]	15000 nM	240 nM	–
O=C1NC(=O)c2c1c1c3cc(F)ccc3[nH]c1c1c2c2cc(F)ccc2n1C1O[C@H](CF)[C@@H](F)[C@H]2O[C@@H]12 (stereo partly drawn) [Example 7, 3,9-Difluoro-12,13-dihydro-13-[(2,3-anhydro)-(4,6-difluoro)-β-D-glucopyranosyl]-5H-indolo[2,3-a]pyrrolo[3,4-c]carbazole-5,7(6H)-dione]	580 nM	493 nM	–
O=C1NC(=O)c2c1c1c3cc(F)ccc3[nH]c1c1c2c2cc(F)ccc2n1[C@@H]1OC2COC(C2O)C1O (stereo partly drawn) [Example 1, 3,9-Difluoro-12,13-dihydro-13-[(3,6-anhydro)-β-D-glucopyranosyl]-5H-indolo[2,3-a]pyrrolo[3,4-c]carbazole-5,7(6H)-dione]	85 nM	93 nM	–
O=C1NC(=O)c2c1c1c3cc(F)ccc3[nH]c1c1c2c2cc(F)ccc2n1C1O[C@H](CO)[C@H]2O[C@H]2[C@H]1O (stereo partly drawn) [Example 8, 3,9-Difluoro-12,13-dihydro-13-[(3,4-anhydro)-β-D-glucopyranosyl]-5H-indolo[2,3-a]pyrrolo[3,4-c]carbazole-5,7(6H)-dione]	18 nM	5.3 nM	–
NN1C(=O)c2c(c3c4cc(F)ccc4n([C@@H]4OC5COC([C@@H]5O)[C@H]4O)c3c3[nH]c4ccc(F)cc4c23)C1=O (stereo partly drawn) [Example 4, 3,9-Difluoro-12,13-dihydro-13-[(3,6-anhydro)-β-D-glucopyranosyl]-5H-indolo[2,3-a]pyrrolo[3,4-c]carbazole-5,7(6-N-amino)-dione]	10 nM	< 3 nM	–
O=C1NC(=O)c2c1c1c3cc(F)ccc3[nH]c1c1c2c2cc(F)ccc2n1[C@@H]1O[C@@H]2CO[C@H]([C@H]1O)[C@H]2O [Example 18, 3,9-Difluoro-12,13-dihydro-13-[(3,6-anhydro)-β-D-galactopyranosyl]-5H-indolo[2,3-a]pyrrolo[3,4-c]carbazole-5,7(6H)-dione]	180 nM	123 nM	–
O=C1NC(=O)c2c1c1c3cc(F)c(F)cc3[nH]c1c1c2c2cc(F)c(F)cc2n1[C@@H]1O[C@@H]2CO[C@@H](C2)[C@H]1O [Example 16, 2,3,9,10-Tetrafluoro-12-(3,6-anhydro-4-deoxy-β-D-glucopyranosyl)-6,7,12,13-tetrahydro(5H)indolo[2,3-a]pyrrolo[3,4-c]carbazole-5,7-dione]	–	310 nM	–
O=C1NC(=O)c2c1c1c3cc(F)ccc3[nH]c1c1c2c2cc(F)ccc2n1[C@@H]1OC2COC(C2)C1O (stereo partly drawn) [Example 11, 3,9-Difluoro-12,13-dihydro-13-[(3,6-anhydro-4-deoxy)-β-D-glucopyranosyl]-5H-indolo[2,3-a]pyrrolo[3,4-c]carbazole-5,7(6H)-dione]	130 nM	70 nM	–
O=C1NC(=O)c2c1c1c3cc(F)ccc3sc1c1c2c2cc(F)ccc2n1[C@H]1O[C@@H]2CO[C@H]([C@H]1O)[C@@H]2O [Example 13, 3,9-Difluoro-13-(3,6-anhydro-α-D-glucopyranosyl)-5H,13H-benzo[β]thienyl[2,3-a]pyrrolo[3,4-c]carbazole-5,7(6H)-dione]	110 nM	23.2 nM	> 305 °C
O=C1NC(=O)c2c1c1c3ccc(F)cc3[nH]c1c1c2c2ccc(F)cc2n1[C@@H]1O[C@@H]2CO[C@H]([C@H]1O)[C@@H]2O [Example 14, 12-(3,6-Anhydro-β-D-glucopyranosyl)-2,10-difluoro-12,13-dihydro-5H-indolo[2,3-a]pyrrolo[3,4-c]carbazole-5,7(6H)-dione]	5500 nM	6220 nM	> 300 °C
O=C1NC(=O)c2c1c1c3ccc(F)cc3[nH]c1c1c2c2ccc(F)cc2n1[C@@H]1O[C@H](CO)[C@H]2O[C@H]2[C@H]1O [Example 12]	580 nM	107 nM	> 300 °C
